# US7528150B2, “Urea derivatives having vanilloid receptor antagonist activity” (Glaxo Group Limited, priority 2003, dated 2009)
# Target: T1, human VR1 (Homo sapiens, UniProt Q8NER1)
# T1 construct: expressed in transfected cells; host or cells: astrocytoma 1321N1 cells, stably transfected
# Assay: FLIPR based calcium assay, antagonism of capsaicin response in 1321N1 cells stably expressing human VR1
# Format: cell-based
# Details: transfected astrocytoma 1321N1 cells expressing human VR1; capsaicin as agonist; pKb generated from IC50 using the Cheng-Prusoff equation
# Method: The screen used for the compounds of this invention was based upon a FLIPR based calcium assay, similar to that described by Smart et al. (British Journal of Pharmacology, 2000, 129, 227-230). Transfected astrocytoma 1321N1 cells, stably expressing human VR1, were seeded into FLIPR plates at 25,000 cells/well (96-well plate) and cultured overnight.
# The cells were subsequently loaded in medium containing 4 μM Fluo-3 AM (Molecular Probes) for 2 h, at room temperature, in the dark. The plates were then washed 4 times with Tyrode containing 1.5 mM calcium, without probenecid. The cells were pre-incubated with compound or buffer control at room temperature for 30 min. Capsaicin (Sigma) was then added to the cells. Compounds having antagonist activity against the human VR1 were identified by detecting differences in fluorescence when measured after capsaicin addition, compared with no compound buffer controls. Thus, for example, in the buffer control capsaicin addition results in an increase in intracellular calcium concentration resulting in fluorescence. A compound having antagonist activity blocks the capsaicin binding to the receptor, there is no signalling and therefore no increase in intracellular calcium levels and consequently lower fluorescence. pKb values are generated from the IC50 values using the Cheng-Prusoff equation.
# T1 sequence (Q8NER1 whole entry): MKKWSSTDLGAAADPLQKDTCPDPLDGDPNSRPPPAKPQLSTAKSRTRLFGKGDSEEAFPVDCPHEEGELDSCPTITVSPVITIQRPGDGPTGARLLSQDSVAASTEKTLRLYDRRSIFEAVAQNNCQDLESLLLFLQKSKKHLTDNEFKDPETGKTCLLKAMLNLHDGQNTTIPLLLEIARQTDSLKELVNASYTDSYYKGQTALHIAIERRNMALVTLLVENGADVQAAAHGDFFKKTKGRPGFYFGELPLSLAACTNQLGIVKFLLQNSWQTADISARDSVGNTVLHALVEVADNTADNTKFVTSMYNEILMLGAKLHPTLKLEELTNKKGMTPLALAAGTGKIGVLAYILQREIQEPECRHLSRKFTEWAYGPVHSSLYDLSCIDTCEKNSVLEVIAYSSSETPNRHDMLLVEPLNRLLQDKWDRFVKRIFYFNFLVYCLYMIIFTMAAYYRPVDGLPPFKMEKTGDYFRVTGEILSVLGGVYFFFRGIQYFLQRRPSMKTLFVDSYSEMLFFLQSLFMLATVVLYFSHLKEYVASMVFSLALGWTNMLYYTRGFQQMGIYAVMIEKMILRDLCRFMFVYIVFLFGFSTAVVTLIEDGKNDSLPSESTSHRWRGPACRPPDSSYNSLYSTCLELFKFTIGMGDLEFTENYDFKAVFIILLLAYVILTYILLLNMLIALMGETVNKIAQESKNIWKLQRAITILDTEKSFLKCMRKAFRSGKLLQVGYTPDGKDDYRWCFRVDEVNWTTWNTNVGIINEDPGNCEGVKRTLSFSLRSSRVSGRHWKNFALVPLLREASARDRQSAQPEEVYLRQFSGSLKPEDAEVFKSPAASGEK
row,SMILES,Kb [nM]
1,Cc1cc2c(NC(=O)N[C@@H]3CCN(Cc4cccc(Cl)c4)C3)cccc2cn1 [Example 14],< 100
2,Cc1nccc2c(NC(=O)NC3CN(Cc4ccccc4C(F)(F)F)C3)cccc12 [Example 22],< 100
3,Cc1cc2c(NC(=O)N[C@@H]3CCN(Cc4cccc(C(F)(F)F)c4)C3)cccc2cn1 [Example 16],< 100
4,Cc1cc2c(NC(=O)N[C@@H]3CCN(Cc4ccc(C(F)(F)F)cc4)C3)cccc2cn1 [Example 17],< 100
